Results on 2 compounds are retold here after patent publication US20080194546A1, “Pyrido-, Pyrazo- and Pyrimido-Pyrimidine Derivatives as mTOR Inhibitors” (KuDOS Pharmaceuticals Limited, priority 2005, published 2008).

Test [1] has as its target T1, mTOR (Homo sapiens, UniProt P42345).
T1 construct: mTOR protein was isolated from HeLa cell cytoplasmic extract by immunoprecipitation; endogenous in cells; host or cells: HeLa cell cytoplasmic extract (immunoprecipitate)
Briefly: Biological Assay: mTOR enzyme activity, mTOR immunoprecipitated from HeLa cell cytoplasmic extract, recombinant PHAS-1 as substrate. Type of test: biochemical. The conditions noted are these: Biological Assay, single values; read-out: IC50.
Text: For mTOR enzyme activity assays, mTOR protein was isolated from HeLa cell cytoplasmic extract by immunoprecipitation, and activity determined essentially as described previously using recombinant PHAS-1 as a substrate (ref. 21).

For test [2], the system named is T47D cells. Briefly: Cell Proliferation Assay (GI50), sulforhodamine B (SRB) assay. The conditions noted are these: Homo sapiens, 120 hours, SRB, single values. Type of test: cell-based. As to the method: Cell growth was assessed using the sulforhodamine B (SRB) assay (A). T47D (ECACC, 85102201) cells were routinely passaged in RPMI (Invitrogen, 42401018) plus 10% foetal calf serum (FCS), 1% L-glutamine (Gibco BRL, 25030) to a confluence not greater than 80%. To undertake the assay, T47D cells were seeded at 2.5×10^3 cells/well in […] RPMI plus 10% foetal calf serum, 1% L-glutamine in 96 well plates (Costar, 3904) and incubated at 37° C. (+5% CO2) in a humidified incubator. Once the cells had fully adhered (typically following 4-5 hours incubation) the plate was removed from the incubator and 10 μL of the diluent added to the control wells (A1-12 and B1-12). Compound was prepared in a six point semi-log dilution at 10× the final concentration required e.g. for a 6 point range of 30 μM to 100 nM in semi-log steps dilution started at 300 μM in stock plate. Dosing was completed by addition of 10 μL of compound at highest concentration to C1-12 through to the lowest concentration in H1-12. The plates were then incubated for 120 hours prior to SRB analysis.
Upon completion of incubation, media was removed and the cells fixed with […] of ice cold 10% (w/v) trichloroacetic acid. The plates were incubated at 4° C. for 20 minutes and then washed four times with water. Each well of cells was then stained with 100 μl of 0.4% (w/v) SRB (Sulforhodamine B, Sigma, Poole, Dorset, UK, Catalogue number S-9012) in 1% acetic acid for 20 minutes before washing four times with 1% acetic acid. Plates were then dried for 2 hours at room temperature. The dye from the stained cells was solubilized by the addition of 100 μl of 10 mM Tris Base into each well. Plates were gently shaken and left at room temperature for 30 minutes before measuring the optical density at 564 nm on a Microquant microtiter plate reader. The concentration of inhibitor eliciting a 50% reduction in growth (GI50) was determined by analysis of staining intensity of the treated cells as a percentage of the vehicle control wells using Excelfit software.
(A) Skehan, P., Storung, R., Scudiero, R., Monks, A., McMahon, J., Vistica, D., Warren, J. T., Bokesch, H., Kenny, S. and Boyd, M. R. (1990) New […] cytotoxicity assay for anticancer-drug screening. J. Natl. Cancer Inst. 82, 1107-1112.
On the technique in general: In SRB staining, fixed cells bind dye roughly in proportion to their protein.

Test [3] has as its system phosphorylation of Serine 473 in Akt in MDA-MB-468 cells. Briefly: In Vitro phospho-Ser473 Akt Assay (Acumen Explorer). The conditions noted are these: Homo sapiens. Type of test: cell-based.
Test [4] addresses recombinant mTOR (FLAG-tagged, amino acid residues 1362 to 2549) (Homo sapiens, UniProt P42345). Briefly: Alternative Enzyme Assay: AlphaScreen, inhibition of phosphorylation by recombinant mTOR. Type of test: biochemical. The conditions noted are these: Alternative Enzyme Assay, single values; read-out: IC50. On the technique in general: In Alpha technology, singlet oxygen from a donor bead excites a nearby acceptor bead.

Like-named read-outs stand apart in the source and are kept apart here.

Consider `C[C@@H]1CN(c2nc(N3CCOCC3)c3ccc(-c4ccsc4)nc3n2)C[C@H](C)O1` [Comparative Example 1k, reference compound], for which the concentration for half-maximal inhibition (IC50) – broadly, the concentration that inhibits the measured activity by half – in test [1] came to 33 nM; in test [3] (MDA-MB-468 cells, single values, read-out: IC50 (phospho-Ser473 Akt assay)) it was 412 nM; in test [4] it was 225 nM. Also, in test [2], growth was halved (GI50) at 268 nM.

For the compound `C[C@@H]1CN(c2nc(N3CCOC[C@@H]3C)c3ccc(-c4ccsc4)nc3n2)C[C@H](C)O1` [Example 11k], in test [2], the GI50 (usually the concentration giving 50% growth inhibition) turned out to be 32 nM. Further, the IC50 in test [3] (MDA-MB-468, read-out: IC50 (phospho-Ser473 Akt assay)) came to 83 nM.
